Data reported in publication PMC13155482 (Science Advances, 2025).
Numbering of substitutions follows the chain as printed. pEC50: −log10 of the molar value. Read-outs that look alike come from different tables or passages of the source. Blank lines part the entries; values can stand above or below the compound they belong to.

Key:
5-HT1A S199A [1] = target: T1, 5-HT1A S199A (Homo sapiens, UniProt P08908, S199A); settings: Gi1, 5-HT1A S199A
T1 sequence (P08908 1-422 S199A): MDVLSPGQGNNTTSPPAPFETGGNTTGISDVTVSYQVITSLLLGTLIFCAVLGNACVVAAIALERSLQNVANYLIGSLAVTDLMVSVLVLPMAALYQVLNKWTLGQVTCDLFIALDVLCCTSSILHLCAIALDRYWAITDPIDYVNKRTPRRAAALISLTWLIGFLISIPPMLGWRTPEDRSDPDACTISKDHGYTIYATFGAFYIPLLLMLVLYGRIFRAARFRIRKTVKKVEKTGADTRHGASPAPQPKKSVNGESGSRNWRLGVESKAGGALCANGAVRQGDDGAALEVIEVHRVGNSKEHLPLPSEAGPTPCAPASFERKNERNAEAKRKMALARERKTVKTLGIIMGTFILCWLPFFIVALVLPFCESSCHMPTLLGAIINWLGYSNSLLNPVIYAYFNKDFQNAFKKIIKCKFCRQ

5-HT1A [2] = target: T2, 5-HT1A (Homo sapiens, UniProt P08908); experiment: 5-HT1A-mediated cAMP inhibition; format: cell-based
T2 sequence (P08908 1-422): T1 sequence (P08908 1-422 S199A) with A199S

5-HT1A [3] = target: T2, 5-HT1A; experiment: BRET Gi1 activation at WT 5-HT1A; settings: Gi1, WT 5-HT1A, compared to antagonist methiothepin
5-HT1A S199A [4] = target: T1, 5-HT1A S199A; settings: Gz
5-HT1A, Gi1 D315P = target: T3, 5-HT1A, Gi1 D315P (Homo sapiens, UniProt P08908); settings: activity comparable to vehicle
T3 sequence (P08908 1-422): T1 sequence (P08908 1-422 S199A) with A199S

5-HT1A A222V = target: T4, 5-HT1A A222V (Homo sapiens, UniProt P08908, A222V); settings: Goa
T4 sequence (P08908 1-422 A222V): T1 sequence (P08908 1-422 S199A) with A199S, A222V

5-HT1A I189A = target: T5, 5-HT1A I189A (Homo sapiens, UniProt P08908, I189A); settings: 5-HT1A I189 mutant
T5 sequence (P08908 1-422 I189A): T1 sequence (P08908 1-422 S199A) with I189A, A199S

5-HT1A S199A [5] = target: T1, 5-HT1A S199A; experiment: cell-based; settings: EC50, Goa
5-HT1A [6] = target: T2, 5-HT1A; experiment: BRET Goa activation at WT 5-HT1A
5-HT1A F112A [7] = target: T6, 5-HT1A F112A (Homo sapiens, UniProt P08908, F112A); settings: Goa
T6 sequence (P08908 1-422 F112A): T1 sequence (P08908 1-422 S199A) with F112A, A199S

5-HT1A F112A [8] = target: T6, 5-HT1A F112A; settings: Gi1, 5-HT1A F112A
5-HT1A F112A [9] = target: T6, 5-HT1A F112A; settings: Gz

activation (5-HT1A S199A [1]): no significant activity
agonist character in cAMP inhibition (5-HT1A [2]): partial agonists
Gi1 activation (5-HT1A [3]): no significant activity
activation (5-HT1A S199A [4]): no significant activity
Emax (%WT 5-HT) (5-HT1A A222V): 64.7 %WT 5-HT
effect of I189 mutation on activity (5-HT1A I189A): ablates asenapine activity
pEC50 (5-HT1A S199A [5]): 8.16
pEC50 (5-HT1A [6]): 8.04
effect of F112A mutation on efficacy (5-HT1A F112A [7]): seemingly ablates
SMILES: CN1CC2c3ccccc3Oc3ccc(Cl)cc3C2C1 (stereo not drawn) [Asenapine]
signaling through Gi1 D315P (5-HT1A, Gi1 D315P): loss of concentration-dependent agonist signaling

effect of F112A mutation on efficacy (5-HT1A F112A [8]): seemingly ablates efficacy
effect of F112A mutation on efficacy (5-HT1A F112A [9]): seemingly ablates efficacy
effect of F112A mutation on efficacy (5-HT1A F112A [7]): seemingly ablates efficacy
SMILES: O=C1CC2(CCCC2)CC(=O)N1CCCCN1CCN(c2ncccn2)CC1 [Buspirone]

agonist character in cAMP inhibition (5-HT1A [2]; HEK293T, compared to 5-HT): partial agonists
SMILES: O=C1CC2(CCCC2)CC(=O)N1CCCCN1CCN(c2nsc3ccccc23)CC1 [Tiospirone]

agonist character in cAMP inhibition (5-HT1A [2]; HEK293T, compared to 5-HT): nearly a full agonist
SMILES: CN1CCN2c3ccccc3Cc3ccccc3C2C1 (stereo not drawn) [mianserin]
